Reference: patent US11977067B2 (Radius Health, Inc., priority 2017, dated 2024)
“And” between values parts separate entries of the source, which are not always exact repeats. Identical values can stand only once.

Legend:
[1] = rate constants and Arrhenius analysis of (beta-Asp10) abaloparatide formation; format: physicochemical
Description: Rate constants at each temperature are tabulated in the top row of Table 18.
An Arrhenius plot was constructed (FIG. 8) by plotting the natural logarithm of the rate constants (k) for three storage temperatures, against the reciprocals of those temperatures in Kelvin. […] The activation energy, Ea, derived with high accuracy from the slope of a linear regression best fit of the Arrhenius plot is Ea=91,670 J/mol. […] For example, the observed rate constant at 5° C., Kobs=0.0655%/month agrees well with the predicted value, Kcalc=0.0644%/month, with only a 0.0011% absolute difference and a 1.7% relative difference.
The amount of b-Asp10 in the API must be determined with rigor and set accordingly to achieve the desired stability profile after pre-specified storage conditions. Previously, this could not be done as the methods used were insufficient for its identification and quantification. Therefore, not only has a new degradant been discovered but the methods described herein have allowed the formation rate equation to be determined and thus allow for setting its specification in the API when coupled with a desired storage stability profile. […] Similarly, the API, once formulated into cartridges is tested for purity including evaluation for (b-Asp10) right after the cartridge is formulated. This is also an important evaluation point for (b-Asp10) because the formulation itself requires time to complete mixing and filling prior to refrigeration.

[2] = (beta-Asp10) abaloparatide levels in formulated registration batches at different storage conditions; format: physicochemical
[3] = target: T1, PTH receptors (Homo sapiens, UniProt Q03431); assay: qualified cell base potency assay for functional PTH activity (cAMP production); format: cell-based
T1 sequence (Q03431 27-593): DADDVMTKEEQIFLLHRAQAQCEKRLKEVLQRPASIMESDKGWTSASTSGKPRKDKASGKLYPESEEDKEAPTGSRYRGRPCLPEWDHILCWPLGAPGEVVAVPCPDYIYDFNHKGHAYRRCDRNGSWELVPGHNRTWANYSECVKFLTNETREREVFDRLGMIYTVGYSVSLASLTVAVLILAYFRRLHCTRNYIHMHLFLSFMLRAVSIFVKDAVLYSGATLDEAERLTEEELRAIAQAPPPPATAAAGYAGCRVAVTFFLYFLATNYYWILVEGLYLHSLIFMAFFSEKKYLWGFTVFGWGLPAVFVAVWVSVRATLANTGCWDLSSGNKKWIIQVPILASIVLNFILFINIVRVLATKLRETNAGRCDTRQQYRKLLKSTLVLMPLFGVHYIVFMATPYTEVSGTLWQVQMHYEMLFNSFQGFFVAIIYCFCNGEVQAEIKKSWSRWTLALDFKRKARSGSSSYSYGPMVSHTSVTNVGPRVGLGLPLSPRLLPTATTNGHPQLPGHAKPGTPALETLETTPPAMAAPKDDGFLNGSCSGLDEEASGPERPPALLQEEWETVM

CC[C@H](C)[C@H](NC(=O)[C@H](CO)NC(=O)[C@H](CCCCN)NC(=O)CNC(=O)[C@H](CCCCN)NC(=O)C[C@H](NC(=O)[C@H](Cc1c[nH]cn1)NC(=O)[C@H](CC(C)C)NC(=O)[C@H](CC(C)C)NC(=O)[C@H](CCC(N)=O)NC(=O)[C@H](Cc1c[nH]cn1)NC(=O)[C@H](CCC(=O)O)NC(=O)[C@H](CO)NC(=O)[C@@H](NC(=O)[C@H](C)N)C(C)C)C(=O)O)C(=O)N[C@@H](CCC(N)=O)C(=O)N[C@@H](CC(=O)O)C(=O)N[C@@H](CC(C)C)C(=O)N[C@@H](CCCNC(=N)N)C(=O)N[C@@H](CCCNC(=N)N)C(=O)N[C@@H](CCCNC(=N)N)C(=O)N[C@@H](CCC(=O)O)C(=O)N[C@@H](CC(C)C)C(=O)N[C@@H](CC(C)C)C(=O)N[C@@H](CCC(=O)O)C(=O)N[C@@H](CCCCN)C(=O)N[C@@H](CC(C)C)C(=O)N[C@@H](CC(C)C)C(=O)NC(C)(C)C(=O)N[C@@H](CCCCN)C(=O)N[C@@H](CC(C)C)C(=O)N[C@@H](Cc1c[nH]cn1)C(=O)N[C@H](C(=O)N[C@@H](C)C(N)=O)[C@@H](C)O [(beta-Asp10) abaloparatide, [b-Asp^10, Glu^22,25, Leu^23,28,31, Aib^29, Lys^26,30]hPTHrP(1-34)NH2)]
Difference (%) between kobs and Kcalc (relative difference) ([1]; 5° C.): 2.3% | Kcalc (%/month), rate constant calculated from activation energy ([1]; 5° C.): 0.0644 %/month and 0.0674 %/month | absolute difference between Kobs and Kcalc ([1]; 5° C.): 0.0011% | kobs (%/month), observed rate constant for formation of (beta-Asp10) abaloparatide ([1]; 5° C.): 0.0655 %/month and 0.0690 %/month | Difference (%) between kobs and Kcalc ([1]; 25° C.): −5.6% | Kcalc (%/month), rate constant calculated from activation energy ([1]; 25° C.): 0.938 %/month | kobs (%/month), observed rate constant for formation of (beta-Asp10) abaloparatide ([1]; 25° C.): 0.993 %/month | Difference (%) between kobs and Kcalc ([1]; 40° C.): 3.5% | Kcalc (%/month), rate constant calculated from activation energy ([1]; 40° C.): 5.19 %/month | kobs (%/month), observed rate constant for formation of (beta-Asp10) abaloparatide ([1]; 40° C.): 5.38 %/month | activation energy, Ea ([1]; slope of linear regression of Arrhenius plot, 5° C. to 40° C.): 91,670 J/mol | (beta-Asp10) abaloparatide level (mean) in formulated samples ([2]; 5° C. long term storage condition, 0 M): 0.3% | (beta-Asp10) abaloparatide level (mean) in formulated samples ([2]; 5° C. long term storage condition, 3 M): 0.5% | (beta-Asp10) abaloparatide level (mean) in formulated samples ([2]; 5° C. long term storage condition, 6 M): 0.76% | (beta-Asp10) abaloparatide level (mean) in formulated samples ([2]; 5° C. long term storage condition, 9 M): 0.96% | (beta-Asp10) abaloparatide level (mean) in formulated samples ([2]; 5° C. long term storage condition, 12 M): 1.03% | (beta-Asp10) abaloparatide level (mean) in formulated samples ([2]; 5° C. long term storage condition, 18 M): 1.66% | (beta-Asp10) abaloparatide level (mean) in formulated samples ([2]; 5° C. long term storage condition, 24 M): 1.93% | (beta-Asp10) abaloparatide level (mean) in formulated samples ([2]; 25° C. accelerated condition, 0 M): 0.3% | (beta-Asp10) abaloparatide level (mean) in formulated samples ([2]; 25° C. accelerated condition, 1 M): 1.26% | (beta-Asp10) abaloparatide level (mean) in formulated samples ([2]; 25° C. accelerated condition, 3 M): 3.26% | (beta-Asp10) abaloparatide level (mean) in formulated samples ([2]; 25° C. accelerated condition, 6 M): 6.3% | (beta-Asp10) abaloparatide level (mean) in formulated samples ([2]; 25° C. accelerated condition, 9 M): 9.43% | (beta-Asp10) abaloparatide level (mean) in formulated samples ([2]; 25° C. accelerated condition, 12 M): 11.96% | (beta-Asp10) abaloparatide level (mean) in formulated samples ([2]; 25° C. accelerated condition, 18 M): 16.73% | (beta-Asp10) abaloparatide level (mean) in formulated samples ([2]; 25° C. accelerated condition, 24 M): 20.73% | (beta-Asp10) abaloparatide level (mean) in formulated samples ([2]; 40° C. stress condition, 0 M): 0.3% | (beta-Asp10) abaloparatide level (mean) in formulated samples ([2]; 40° C. stress condition, 1 M): 7.10% | (beta-Asp10) abaloparatide level (mean) in formulated samples ([2]; 40° C. stress condition, 3 M): 18.76% | (beta-Asp10) abaloparatide level (mean) in formulated samples ([2]; 40° C. stress condition, 6 M): 32.9% | agonist on PTH receptors [3]: active per se as an agonist | EC50 ([3]; production of cAMP as a measure of bioactivity): 0.832 nM

CC[C@H](C)[C@H](NC(=O)[C@H](CO)NC(=O)[C@H](CCCCN)NC(=O)CNC(=O)[C@H](CCCCN)NC(=O)[C@H](CC(=O)O)NC(=O)[C@H](Cc1c[nH]cn1)NC(=O)[C@H](CC(C)C)NC(=O)[C@H](CC(C)C)NC(=O)[C@H](CCC(N)=O)NC(=O)[C@H](Cc1c[nH]cn1)NC(=O)[C@H](CCC(=O)O)NC(=O)[C@H](CO)NC(=O)[C@@H](NC(=O)[C@H](C)N)C(C)C)C(=O)N[C@@H](CCC(N)=O)C(=O)N[C@@H](CC(=O)O)C(=O)N[C@@H](CC(C)C)C(=O)N[C@@H](CCCNC(=N)N)C(=O)N[C@@H](CCCNC(=N)N)C(=O)N[C@@H](CCCNC(=N)N)C(=O)N[C@@H](CCC(=O)O)C(=O)N[C@@H](CC(C)C)C(=O)N[C@@H](CC(C)C)C(=O)N[C@@H](CCC(=O)O)C(=O)N[C@@H](CCCCN)C(=O)N[C@@H](CC(C)C)C(=O)N[C@@H](CC(C)C)C(=O)NC(C)(C)C(=O)N[C@@H](CCCCN)C(=O)N[C@@H](CC(C)C)C(=O)N[C@@H](Cc1c[nH]cn1)C(=O)N[C@H](C(=O)N[C@@H](C)C(N)=O)[C@@H](C)O [abaloparatide, [Glu^22,25, Leu^23,28,31, Aib^29, Lys^26,30]hPTHrP(1-34)NH2)]
kinetic order of isomerization of abaloparatide to (beta-Asp10) isomer ([1]; formulated drug product): zero order kinetics
